Reference: patent publication US8877736B2, “Method for treating keloid by administering 3′sialyllactose or 6′sialyllactose as a pharmaceutical or cosmetic” (Benebiosis Co., Ltd., priority 2009, dated 2014)
Entries after “also recorded” stand apart in the source; their conditions may differ.

How the values were obtained:
Format in all cases: cell-based
[1] = system: Human keloid fibroblasts (CRL 1762); experiment: XTT cell proliferation analysis of keloid fibroblasts; settings: 1 mM, 0-5 days, compared with negative control (PBS), FIG. 2
Protocol: (§1) Human keloid fibroblasts (CRL 1762) were purchased from ATCC. Medium has the following composition: DMEM (Dulbecco's Modified Eagle's Medium), 4 mM L-glutamine, 100 μg/ml streptomycin, 100 U/ml penicillin and 10% fetal bovine serum. The fibroblasts were incubated at 37° C. in a CO2 incubator under humid atmosphere (5% CO2, 95% air). Medium was replaced every 3-4 days.
The rate of cell proliferation was measured using Roche's Cell Proliferation Kit II (XTT) system. Keloid fibroblasts (KF) were plated at 2.0×10^3 cells/well in a 96-well plate and then treated 3′-SL, 6′-SL and PBS at a concentration of 1 mM, respectively. After 0, 1, 3 and 5 days, KF was incubated with 50 μl/well of XTT (sodium 3′-[1-(phenylaminocarbonyl)-3,4-tetrazolium]-bis(4-methoxy-6-nitro) benzene sulfonic acid hydrate) reagent for 4 hr at 37° C. and the absorbance at 470 nm was measured using a microplate reader. The relative survival rates of groups treated with sialyllactose were calculated with reference to untreated sialyllactose group (i.e., excipient treatment group, 100% survival rate).

[2] = system: Human keloid fibroblasts (CRL 1762); experiment: Cell counting of keloid fibroblasts (trypan blue); settings: 1 mM, up to 12 days, compared with negative control (PBS), FIG. 1
Protocol: as §1
Keloid fibroblasts (KF) were plated at 5×10^4 cells/well in a 6-well plate. 24 hours later, KF was incubated with 1 mM 3′-sialyllactose (3′-SL), 6′-sialyllactose (6′-SL) or excipient (Phosphate buffered saline, PBS). 3′-Sialyllactose (3′-N-Acetylneuraminyl-D-lactose, 3′-Sialyl-D-lactose or α-NeuNAc-(2→3)-β-D-Gal-(1→4)-D-Glc) or 6′-sialyllactose (6′-N-Acetylneuraminyl-lactose, 6′-Sialyl-D-lactose, or α-NeuNAc-(2→6)-β-D-Gal-(1→4)-D-Glc) were purchased from Sigma-Aldrich. After 0, 1, 5, 7, 9, and 12 days, KF was collected using trypsin-EDTA and stained with trypan blue, followed by cell counting using a blood cell counter (C-Chip DHC N15, Incyto).

RAW 264.7 cells = experiment: Cytotoxicity analysis, MTT assay on RAW 264.7 cells; settings: 0.001, 0.01, 0.1 and 1 mM, 5 days, compared with negative control (PBS), FIGS. 4a-4b
Protocol: Cytotoxicity of sialyllactose to cells other than keloid fibroblasts was analyzed RAW 264.7 cells (TIB-71) were purchased from ATCC. Dulbecco's Modified Eagle's Medium (DMEM) was purchased from JBI and supplemented with 100 U/ml penicillin, 100 μg/ml streptomycin, and 10% fetal bovine serum (FBS). Medium was replaced every 3-4 days. The cells were incubated at 37° C. in a CO2 incubator. For investigation of cell proliferation rate, MTT quantification was performed. RAW 264.7 cells were plated at 2.0×10^3 cells/well in a 96-well plate and 3′-SL or 6′-SL was treated at a concentration of 0.001, 0.01, 0.1, and 1 mM. A negative control group was treated with PBS. After 5 days, the cells were incubated with 500 μg/ml MTT solution for 4 hr at 37° C. […], the absorbance at 540 nm was measured using formazan in diumsulfoxide (DMSO). The relative survival rates of groups treated with sialyllactose were calculated with reference to untreated sialyllactose group (i.e., PBS treatment group, 100% survival rate).

[3] = system: Human keloid fibroblasts (CRL 1762); experiment: TUNEL analysis of apoptosis of keloid fibroblasts; settings: 1 mM, 0-5 days, FIG. 3
Protocol: as §1
Using in situ cell death detection kit (TUNEL, Roche Diagnostics), apoptosis was analyzed and DNA fragmentation in keloid fibroblasts was quantified. A single layer of keloid fibroblasts was cultured directly in a tissue culture flask and then incubated with 1 mM 3′-SL, 6′-SL or PBS. Following 0, 1, 3 and 5 days, the analysis was carried out according to the manufacturer's manual.

| SMILES | proliferation of keloid fibroblasts (XTT; text says MTT analysis) [1] | growth of keloid fibroblasts (cell counting) [2] | proliferation of RAW 264.7 cells (MTT) (RAW 264.7 cells) | apoptosis of keloid fibroblasts (TUNEL) [3] | apoptosis of keloid fibroblasts (TUNEL) ([3]; listed as 6′ SL) |
| --- | --- | --- | --- | --- | --- |
| CC(=O)N[C@H]1[C@H]([C@H](O)[C@H](O)CO)O[C@@](O[C@H]2[C@@H](O)[C@@H](CO)O[C@@H](O[C@H]3[C@H](O)[C@@H](O)C(O)O[C@@H]3CO)[C@@H]2O)(C(=O)O)C[C@@H]1O (stereo partly drawn) [3′-SL, α-NeuNAc-(2→3)-β-D-Gal-(1→4)-D-Glc] | considerably inhibited | considerably inhibited | not affected | induced | – |
| CC(=O)N[C@H]1[C@H]([C@H](O)[C@H](O)CO)O[C@@](OC[C@H]2O[C@@H](O[C@H]3[C@H](O)[C@@H](O)[C@H](O)O[C@@H]3CO)[C@H](O)[C@@H](O)[C@H]2O)(C(=O)O)C[C@@H]1O [6′-SL, α-NeuNAc-(2→6)-β-D-Gal-(1→4)-D-Glc] | considerably inhibited; also recorded: more significantly inhibited by 6′-SL than the 3′-SL | considerably inhibited; also recorded: more significantly inhibited by 6′-SL than the 3′-SL | not affected | more significantly inhibited by 6′-SL than the 3′-SL | induced |
